Measurements: patent US6150359A, “Naphthyridinones for inhibiting protein tyrosine kinase and cell cycle kinase mediated cellular proliferation” (Warner-Lambert Company, priority 2000, dated 2000)

Legend:
Protein kinase C (PKC) = Protein kinase C (PKC) assay; format: biochemical; details: rat brain preparation
Experimental: Other Kinases. c-Src kinase is purified from baculovirus infected insect cell lysates using an antipeptide monoclonal antibody directed against the N-terminal 2-17 amino acids as described previously by Fry, et al., Anticancer Drug Design, 1994;9:331-351. Protein kinase C (PKC.) is obtained as a rat brain preparation from Promega.
Other Kinases. An assay using the intracellular kinase domains of insulin receptor (INSr) is performed as described for the EGF receptor except that 10 mM manganese chloride is included in the reaction. The PKC assay is performed as previously described by Martiny-Baron, et al., J. Biol. Chem., 1993;268:9194-9197.

PDGF receptor = target: T1, PDGF receptor (Rattus norvegicus, UniProt Q05030); test: PDGF Receptor Autophosphorylation Assay in rat aorta smooth muscle cells; format: cell-based; details: PDGF-BB 30 ng/mL, 5 minutes, 2 hours preincubation, read-out: Inhibition of PDGF-Stimulated Receptor Autophosphorylation IC50
T1 construct: endogenous in cells; host or cells: rat aorta smooth muscle cells, primary culture, passages 5 to 20
T1 sequence (Q05030 32-1097): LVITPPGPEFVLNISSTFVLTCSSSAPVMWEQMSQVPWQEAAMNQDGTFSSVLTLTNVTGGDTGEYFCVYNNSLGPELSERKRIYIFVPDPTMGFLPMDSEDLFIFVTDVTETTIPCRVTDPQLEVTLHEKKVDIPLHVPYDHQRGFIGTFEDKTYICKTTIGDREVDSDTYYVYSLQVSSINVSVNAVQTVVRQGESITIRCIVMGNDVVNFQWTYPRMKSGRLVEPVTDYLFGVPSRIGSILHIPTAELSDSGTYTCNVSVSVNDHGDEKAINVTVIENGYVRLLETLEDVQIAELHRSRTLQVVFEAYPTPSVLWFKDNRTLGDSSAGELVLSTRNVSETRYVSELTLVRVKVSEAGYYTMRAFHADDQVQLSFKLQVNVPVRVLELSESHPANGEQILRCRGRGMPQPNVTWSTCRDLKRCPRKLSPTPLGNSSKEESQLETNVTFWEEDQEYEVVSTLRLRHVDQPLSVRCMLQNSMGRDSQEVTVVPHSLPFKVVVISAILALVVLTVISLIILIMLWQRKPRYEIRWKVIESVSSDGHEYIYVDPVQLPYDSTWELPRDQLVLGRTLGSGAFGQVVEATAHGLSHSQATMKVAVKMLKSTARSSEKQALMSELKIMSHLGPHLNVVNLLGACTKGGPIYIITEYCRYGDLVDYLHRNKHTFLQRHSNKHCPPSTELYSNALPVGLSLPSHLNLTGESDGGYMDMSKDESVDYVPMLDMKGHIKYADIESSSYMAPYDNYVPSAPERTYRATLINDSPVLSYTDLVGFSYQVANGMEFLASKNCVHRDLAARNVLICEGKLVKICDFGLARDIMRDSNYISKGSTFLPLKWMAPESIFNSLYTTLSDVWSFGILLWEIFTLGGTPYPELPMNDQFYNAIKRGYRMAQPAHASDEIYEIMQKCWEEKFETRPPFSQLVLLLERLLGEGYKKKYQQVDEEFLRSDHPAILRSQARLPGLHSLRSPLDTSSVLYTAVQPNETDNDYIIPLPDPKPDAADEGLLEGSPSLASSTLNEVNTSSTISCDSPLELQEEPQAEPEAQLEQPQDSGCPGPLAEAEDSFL
Experimental: PDGF Receptor Autophosphorylation Assay. Rat aorta smooth muscle cells (RASMC.) are isolated from the thoracic aorta of rats and explanted according to the method of Ross, J. Cell. Biol., 1971;30:172-186. Cells are grown in Dulbecco's modified Eagle's medium (DMEM, Gibco) containing 10% fetal calf serum (FBS, Hyclone, Logan, Utah), 1% glutamine (Gibco), and 1% penicillin/streptomycin (Gibco). Cells are identified as smooth muscle cells by their "hill and valley" growth pattern and by fluorescent staining with a monoclonal antibody specific for SMC […] (Sigma). RASMC are used between passages 5 and 20 for all experiments. Test compounds are prepared in dimethylsulfoxide (DMSO) in order to achieve consistency in the vehicle and to ensure compound solubility. Appropriate DMSO controls are simultaneously evaluated with the test compounds.
Rat aortic smooth muscle cells are grown to confluency in 100 mm dishes. Growth medium is removed and replaced with serum-free medium, and cells are incubated at 37° C. for an additional 24 hours. Test compounds are then added directly to the medium and cells incubated for an additional 2 hours. After 2 hours, PDGF-BB is added at a final concentration of 30 ng/mL for 5 minutes at 37° C. to stimulate autophosphorylation of PDGF receptors. Following growth factor treatment, the medium is removed, and cells are washed with cold phosphate-buffered saline and immediately lysed with 1 mL of lysis buffer (50 mM Hepes, pH 7.5, 150 mM NaCl, 10% glycerol, 1% Triton-X 100, 1 mM EDTA, 1 mM EGTA, 50 mM NaF, 1 mM sodium orthovanadate, 30 mM p-nitrophenyl phosphate, 10 mM sodium pyrophosphate, 1 mM phenylmethyl sulfonyl fluoride, 10 μg/mL aprotinin, and 10 μg/mL leupeptin). Lysates are centrifuged at 10,000×g for 10 minutes. Supernatants are incubated with 10 μL of rabbit anti-human PDGF type AB receptor antibody (1:1000) for 2 hours. Following the incubation, protein-A-sepharose beads are added for 2 hours with continuous mixing, and immune complexes bound to the beads washed four times with 1 mL lysis wash buffer. Immune complexes are solubilized in 40 μL of Laemmli sample buffer and electrophoresed in 8% to 16% SDS polyacrylamide gels. […] Following extensive washing with PBS-0.2% tween-20, the blots are incubated with horseradish peroxidase labeled goat anti-mouse IgG (1:5000; Bio-Rad Inc., Hercules, Calif.), and protein levels are detected by enhanced chemiluminescence (ECL) detection system according to the instructions of the supplier (Amersham Inc., Arlington Heights, Ill.). The density of the protein bands are determined using NIH Image software (v. 1.56) and IC50 values are generated from the densitometric data.

HT-29 cells = test: Human Colon Carcinoma Growth Delay Assay, HT-29; format: cell-based; details: 72 h, HT-29, 3 days
Experimental: Human Colon Carcinoma Growth Delay Assay. Human colon carcinoma cells are seeded into 96-well tissue culture plates in a final volume of 180 μL of 10% fetal bovine serum containing growth media and allowed to incubate overnight (37° C., 5% CO2, 95% air). Cells of the SW-620 cell line are seeded at 1.0-1.5×10^4 cells per well. Cells of the HCT-8 and HT-29 cell lines are seeded at 2-4×10^3 cells per well. Serially diluted drug solutions are prepared in growth medium at 10 times concentration; 20 μL of these solutions are added to duplicate wells and incubated with the cells for 3 days in a cell culture incubator. At the end of the incubation period, cells are fixed with 100 μL per well of 10% trichloroacetic acid after removing the drug/culture medium. The plates are washed five times with tap water and stained with 100 μL per well of 0.075% sulfrhodamine B in 1% acetic acid for 10 minutes. The plates are rinsed four times and allowed to air dry. The stain in the wells are solubilized by the addition of 10 mM unbuffered Tris base and the absorbance read using a microtiter plate optical reader. Inhibition of cell growth is calculated from absorbance data of the treated cells compared to untreated control cells.

Structure (SMILES): CCN(CC)CCCCNc1cc2c(cn1)cc(-c1c(Cl)cccc1Cl)c(=O)n2C [Example F, 3-(2,6-dichlorophenyl)-7-[4-(diethylamino)butylamino]-1-methyl-1H-[1,6]naphthyridin-2-one]
- IC50 (Protein kinase C (PKC)): > 50 µM
- IC50 (PDGF receptor): 0.49 µM
- IC50 (HT-29 cells): 1.5 µM

Structure (SMILES): CN1CCN(CCCNc2cc3c(cn2)cc(-c2c(Cl)cccc2Cl)c(=O)n3C)CC1 [Example H, 3-(2,6-dichlorophenyl)-1-methyl-7-[3-(4-methylpiperazin-1-yl)propylamino]-1H-[1,6]naphthyridin-2-one]
- IC50 (Protein kinase C (PKC)): < 50 µM
- IC50 (PDGF receptor): > 10 µM
- IC50 (HT-29 cells): 2.2 µM

Structure (SMILES): CCN(CC)CCOc1ccc(Nc2cc3c(cn2)cc(-c2c(Cl)cccc2Cl)c(=O)n3C)cc1 [Example P, 3-(2,6-dichlorophenyl)-7-[(4-(2-(diethylamino)ethoxy)phenyl)amino]-1-methyl-1H-[1,6]naphthyridin-2-one]
- IC50 (Protein kinase C (PKC)): > 50 µM
- IC50 (PDGF receptor): 0.23 µM
- IC50 (HT-29 cells): 0.8 µM

Structure (SMILES): CN1CCN(CCOc2ccc(Nc3cc4c(cn3)cc(-c3c(Cl)cccc3Cl)c(=O)n4C)cc2)CC1 [Example S, 3-(2,6-dichlorophenyl)-1-methyl-7-[(4-(2-(4-methylpiperazin-1-yl)ethoxy)phenyl)amino]-1H-[1,6]naphthyridin-2-one]
- IC50 (PDGF receptor): 0.81 µM
- IC50 (HT-29 cells): 0.9 µM
